Activity calls are given as the source filed them.
Assays:
[1] = tested on: AML; test: Inhibition of NF-kappaB activity in human AML cells assessed as phosphorylation of NF-kappaB p65 subunit at Ser-536 at 7.5 uM by immunoblotting; assay type: cell-based
[2] = tested on: AML; test: Cytotoxicity against human AML cells at 7.5 uM after 24 hrs using Annexin-V and 7-AAD staining by flow cytometry; assay type: functional, cell-based
[3] = tested on: AML; test: Binding affinity to NF-kappaB p65 activity in human AML cells after 4 hrs streptavidin beads pull-down assay; assay type: cell-based
[4] = molecular target: T1, Inhibitor of nuclear factor kappa-B kinase subunit beta (Homo sapiens) (UniProt O14920); test: Binding affinity to IKK-beta activity in human AML cells after 4 hrs streptavidin beads pull-down assay; assay type: cell-based
T1 sequence (whole entry): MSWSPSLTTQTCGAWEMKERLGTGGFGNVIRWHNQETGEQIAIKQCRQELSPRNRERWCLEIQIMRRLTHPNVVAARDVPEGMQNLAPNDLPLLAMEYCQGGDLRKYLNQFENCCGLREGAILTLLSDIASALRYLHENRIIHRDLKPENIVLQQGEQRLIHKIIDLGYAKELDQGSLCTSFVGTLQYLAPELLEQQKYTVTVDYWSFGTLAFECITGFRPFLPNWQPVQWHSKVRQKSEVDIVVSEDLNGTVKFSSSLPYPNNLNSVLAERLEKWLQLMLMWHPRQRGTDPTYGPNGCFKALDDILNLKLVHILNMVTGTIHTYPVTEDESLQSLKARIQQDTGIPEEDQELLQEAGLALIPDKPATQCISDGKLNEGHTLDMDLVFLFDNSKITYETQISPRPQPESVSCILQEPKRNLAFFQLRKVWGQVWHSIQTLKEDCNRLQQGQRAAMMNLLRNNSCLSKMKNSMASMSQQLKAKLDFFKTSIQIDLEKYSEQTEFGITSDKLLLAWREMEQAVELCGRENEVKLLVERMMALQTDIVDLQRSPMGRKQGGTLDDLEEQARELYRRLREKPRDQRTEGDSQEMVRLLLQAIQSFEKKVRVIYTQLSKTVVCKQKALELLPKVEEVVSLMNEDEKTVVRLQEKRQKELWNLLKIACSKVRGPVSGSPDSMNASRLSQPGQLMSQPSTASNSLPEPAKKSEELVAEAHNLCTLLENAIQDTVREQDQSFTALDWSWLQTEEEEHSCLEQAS

[5] = tested on: AML; test: Inhibition of NF-kappaB activity in human AML cells assessed as phosphorylation of NF-kappaB p65 subunit at Ser-536 at 15 uM by immunoblotting; assay type: cell-based
[6] = tested on: AML; test: Cytotoxicity against human AML cells at 20 to 30 uM after 24 hrs using Annexin-V and 7-AAD staining by flow cytometry; assay type: functional, cell-based

Measured: Activity

C=C1C(=O)O[C@@H]2[C@H]3O[C@]3(C)CC/C=C(\CO)CC[C@@H]12
active: [1] | [2]

C=C1C(=O)O[C@@H]2[C@H]3O[C@]3(C)CC/C=C(\COC(=O)CCCCCCCCCCCNC(=O)CCCC[C@@H]3SC[C@@H]4NC(=O)N[C@@H]43)CC[C@@H]12
active: [3] | [4] | [5] | [6]

Source: ChEMBL document CHEMBL1671801, “Melampomagnolide B: a new antileukemic sesquiterpene” (Bioorg Med Chem, 2011)
